Measured values published in patent US9096601B2 (CSPC Zhongqi Pharmaceutical Technology (Shijiazhuang) Co., …, priority 2010, dated 2015).
Like-named read-outs stand apart in the source and are kept apart here.

How the values were obtained:
[1] = target: EGFR L858R/T790M double mutant type (Homo sapiens (Human), UniProt P00533, L858R/T790M); test: Kinase inhibitory activity, isotopic labeling (γ-33P-ATP); type: biochemical; settings: ATP 45 μM (Km)
Procedure: (§1) The object of this assay was to test the inventive compounds for the kinase inhibitory activity in vitro. In this assay, an isotopic labeling method was used to label the γ phosphate group on ATP. […] Staurosporine was used as a reference molecule (or referred to as a positive control). […] The IC50 value can be obtained by the calculation of the inhibitory rates at a series of different concentrations of the tested compounds.
(§2) To a reaction tube were successively added the buffer solution (8 mM MOPS, pH 7.0, 0.2 mM EDTA, 10 mM MnCl2), the kinase to be tested (5-10 mU) (EGFR/ALK/BTK/c-KIT/c-SRC/MET/PDGFRα/VEGFR2), the substrate for the kinase to be tested (a reference material), 10 mM of the solution of magnesium acetate and γ-^33 P-ATP, and different concentrations of the tested compounds. […] The reaction was terminated with […] of the 3% phosphate buffer solution. 10 μL of the reaction liquid was titrated on the Filtermat A membrane. The membrane was washed with 75 mM of the phosphate solution thrice (5 minutes each time), and then with methanol once, and finally dried. The membrane was subjected to a scintillation counting. The value of the scintillation counting reflected the phosphorylation level of the substrate and therefore could characterize the inhibition of the kinase activity.

[2] = target: EGFR L858R mutant type (Homo sapiens (Human), UniProt P00533, L858R); test: as above; type: biochemical; settings: ATP 200 μM (Km)
Procedure: as §1, §2

[3] = target: EGFR wild type (Homo sapiens (Human), UniProt P00533); test: as above; type: biochemical; settings: ATP 10 μM (Km)
Procedure: as §1, §2

[4] = system: liver cancer cell strain Hep G2; test: In-vitro tumor cell proliferation inhibition, MTT; type: cell-based, human
[5] = system: breast carcinoma cell strain BT474; test: In-vitro tumor cell proliferation inhibition, MTT; type: cell-based, human
Outline: (§3)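 MTT colorimetric proliferation test: plated cells exposed 72 h to compound dilution series, DMSO 1% solvent control included. A570 gave inhibition relative to drug-free control; IC50 or inhibitory rate from at least three experiments. HCC827 and BT474 grown in RPMI-1640, A431 and SW620 in DMEM, both with 10% FBS.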

[6] = system: breast carcinoma cell strain MDA-MB-468; test: In-vitro tumor cell proliferation inhibition, MTT; type: cell-based, human
[7] = system: colon cancer cell strain SW620; test: In-vitro tumor cell proliferation inhibition, MTT; type: cell-based, human
Outline: as §3

[8] = system: colon cancer cell strain SW480; test: In-vitro tumor cell proliferation inhibition, MTT; type: cell-based, human
[9] = system: colon cancer cell strain HCT116; test: In-vitro tumor cell proliferation inhibition, MTT; type: cell-based, human
[10] = system: gastric cancer cell strain MK-45; test: In-vitro tumor cell proliferation inhibition, MTT; type: cell-based, human; settings: 72 hours, read-out: MK45 (IC50)
[11] = system: squamous cell carcinoma cell strain A431; test: In-vitro tumor cell proliferation inhibition, MTT; type: cell-based, human
Outline: as §3

[12] = system: acute myelogenous leukemia cell strain MV4-11; test: In-vitro tumor cell proliferation inhibition, MTT; type: cell-based, human
[13] = system: chronic granulocytic leukemia cell strain K562; test: In-vitro tumor cell proliferation inhibition, MTT; type: cell-based, human
[14] = system: malignant melanoma cell strain A375; test: In-vitro tumor cell proliferation inhibition, MTT; type: cell-based, human
[15] = target: MET (Homo sapiens (Human), UniProt P08581); test: Kinase inhibitory activity, isotopic labeling (γ-33P-ATP); type: biochemical; settings: compound at 10 μM
Procedure: (§4) The object of this assay was to test the inventive compounds for the kinase inhibitory activity in vitro. In this assay, an isotopic labeling method was used to label the γ phosphate group on ATP. EGFR (including wild type, L858R mutant type and L858R/T790M double mutant type), VEGFR2, ALK, BTK, c-KIT, c-SRC, MET, PDGFRα and FLT3 kinases were tested in vitro for the activity inhibition. Staurosporine was used as a reference molecule (or referred to as a positive control). […] The IC50 value can be obtained by the calculation of the inhibitory rates at a series of different concentrations of the tested compounds.
as §2

[16] = target: c-KIT (Homo sapiens (Human), UniProt P10721); test: as above; type: biochemical; settings: compound at 10 μM
Procedure: as §4, §2

[17] = 72 hours, read-out: HEPG2 (IC50)

Sequence of MET (P08581 25-1390): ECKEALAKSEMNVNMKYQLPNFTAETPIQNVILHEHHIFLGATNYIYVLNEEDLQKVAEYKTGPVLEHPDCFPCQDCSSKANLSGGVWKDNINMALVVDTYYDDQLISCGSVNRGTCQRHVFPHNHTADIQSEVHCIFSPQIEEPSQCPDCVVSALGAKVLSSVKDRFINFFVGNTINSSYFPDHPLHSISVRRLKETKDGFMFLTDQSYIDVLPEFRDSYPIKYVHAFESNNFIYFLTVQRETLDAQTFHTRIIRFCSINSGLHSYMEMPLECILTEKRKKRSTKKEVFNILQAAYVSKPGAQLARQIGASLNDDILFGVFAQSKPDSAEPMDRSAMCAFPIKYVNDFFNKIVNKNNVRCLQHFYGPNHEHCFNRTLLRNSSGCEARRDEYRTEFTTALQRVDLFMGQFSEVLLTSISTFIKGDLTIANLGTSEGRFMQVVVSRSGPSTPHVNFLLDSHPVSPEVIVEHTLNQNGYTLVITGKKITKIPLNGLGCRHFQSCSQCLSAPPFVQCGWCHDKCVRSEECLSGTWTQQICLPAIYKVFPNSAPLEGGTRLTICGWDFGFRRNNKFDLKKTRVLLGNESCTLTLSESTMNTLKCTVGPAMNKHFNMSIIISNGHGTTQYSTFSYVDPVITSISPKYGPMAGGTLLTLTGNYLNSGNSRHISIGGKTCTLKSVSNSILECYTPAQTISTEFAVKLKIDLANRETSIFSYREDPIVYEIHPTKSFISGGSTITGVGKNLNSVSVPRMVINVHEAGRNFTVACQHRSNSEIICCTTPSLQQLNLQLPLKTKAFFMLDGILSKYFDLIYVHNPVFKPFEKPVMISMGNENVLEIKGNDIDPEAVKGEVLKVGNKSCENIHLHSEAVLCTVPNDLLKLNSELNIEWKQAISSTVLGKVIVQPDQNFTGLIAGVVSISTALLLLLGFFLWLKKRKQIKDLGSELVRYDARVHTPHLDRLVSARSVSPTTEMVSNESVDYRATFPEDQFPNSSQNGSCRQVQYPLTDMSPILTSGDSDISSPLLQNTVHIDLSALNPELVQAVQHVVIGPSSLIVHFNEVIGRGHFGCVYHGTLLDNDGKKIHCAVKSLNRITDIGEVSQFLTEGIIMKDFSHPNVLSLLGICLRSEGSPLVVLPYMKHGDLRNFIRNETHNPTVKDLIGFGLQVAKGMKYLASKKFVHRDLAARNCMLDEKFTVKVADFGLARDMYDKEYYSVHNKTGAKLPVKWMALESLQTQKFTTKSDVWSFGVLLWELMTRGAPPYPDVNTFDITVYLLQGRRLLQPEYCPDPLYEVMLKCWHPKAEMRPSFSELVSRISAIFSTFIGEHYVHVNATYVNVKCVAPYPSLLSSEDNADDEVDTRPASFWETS
Sequence of c-KIT (P10721 26-976): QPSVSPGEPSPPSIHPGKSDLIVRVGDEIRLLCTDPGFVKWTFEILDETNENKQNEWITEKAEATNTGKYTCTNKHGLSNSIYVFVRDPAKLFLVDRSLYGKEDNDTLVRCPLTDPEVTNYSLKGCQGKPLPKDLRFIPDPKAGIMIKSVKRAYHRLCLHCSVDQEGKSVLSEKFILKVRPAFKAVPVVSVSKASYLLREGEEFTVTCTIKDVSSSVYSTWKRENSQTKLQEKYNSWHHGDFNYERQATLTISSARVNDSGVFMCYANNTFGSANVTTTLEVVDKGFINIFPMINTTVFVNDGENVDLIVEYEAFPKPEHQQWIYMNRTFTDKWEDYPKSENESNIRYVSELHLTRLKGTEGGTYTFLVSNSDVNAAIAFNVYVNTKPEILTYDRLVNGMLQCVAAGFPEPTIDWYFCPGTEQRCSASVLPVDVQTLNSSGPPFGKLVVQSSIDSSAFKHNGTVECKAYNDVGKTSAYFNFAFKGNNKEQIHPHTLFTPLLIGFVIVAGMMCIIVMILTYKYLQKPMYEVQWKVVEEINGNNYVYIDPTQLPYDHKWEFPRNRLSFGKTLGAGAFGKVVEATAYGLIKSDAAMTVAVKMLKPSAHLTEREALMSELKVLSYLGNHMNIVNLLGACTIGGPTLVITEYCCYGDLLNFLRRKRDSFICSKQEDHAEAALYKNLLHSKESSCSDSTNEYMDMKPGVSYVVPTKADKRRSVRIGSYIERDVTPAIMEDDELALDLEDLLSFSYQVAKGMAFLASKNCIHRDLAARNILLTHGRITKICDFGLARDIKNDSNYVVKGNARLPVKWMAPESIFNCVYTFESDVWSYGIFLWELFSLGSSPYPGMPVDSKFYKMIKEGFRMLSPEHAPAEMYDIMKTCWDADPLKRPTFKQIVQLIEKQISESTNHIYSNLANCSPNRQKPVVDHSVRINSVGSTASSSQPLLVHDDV
Sequence of EGFR L858R mutant type (P00533 25-1210 L858R): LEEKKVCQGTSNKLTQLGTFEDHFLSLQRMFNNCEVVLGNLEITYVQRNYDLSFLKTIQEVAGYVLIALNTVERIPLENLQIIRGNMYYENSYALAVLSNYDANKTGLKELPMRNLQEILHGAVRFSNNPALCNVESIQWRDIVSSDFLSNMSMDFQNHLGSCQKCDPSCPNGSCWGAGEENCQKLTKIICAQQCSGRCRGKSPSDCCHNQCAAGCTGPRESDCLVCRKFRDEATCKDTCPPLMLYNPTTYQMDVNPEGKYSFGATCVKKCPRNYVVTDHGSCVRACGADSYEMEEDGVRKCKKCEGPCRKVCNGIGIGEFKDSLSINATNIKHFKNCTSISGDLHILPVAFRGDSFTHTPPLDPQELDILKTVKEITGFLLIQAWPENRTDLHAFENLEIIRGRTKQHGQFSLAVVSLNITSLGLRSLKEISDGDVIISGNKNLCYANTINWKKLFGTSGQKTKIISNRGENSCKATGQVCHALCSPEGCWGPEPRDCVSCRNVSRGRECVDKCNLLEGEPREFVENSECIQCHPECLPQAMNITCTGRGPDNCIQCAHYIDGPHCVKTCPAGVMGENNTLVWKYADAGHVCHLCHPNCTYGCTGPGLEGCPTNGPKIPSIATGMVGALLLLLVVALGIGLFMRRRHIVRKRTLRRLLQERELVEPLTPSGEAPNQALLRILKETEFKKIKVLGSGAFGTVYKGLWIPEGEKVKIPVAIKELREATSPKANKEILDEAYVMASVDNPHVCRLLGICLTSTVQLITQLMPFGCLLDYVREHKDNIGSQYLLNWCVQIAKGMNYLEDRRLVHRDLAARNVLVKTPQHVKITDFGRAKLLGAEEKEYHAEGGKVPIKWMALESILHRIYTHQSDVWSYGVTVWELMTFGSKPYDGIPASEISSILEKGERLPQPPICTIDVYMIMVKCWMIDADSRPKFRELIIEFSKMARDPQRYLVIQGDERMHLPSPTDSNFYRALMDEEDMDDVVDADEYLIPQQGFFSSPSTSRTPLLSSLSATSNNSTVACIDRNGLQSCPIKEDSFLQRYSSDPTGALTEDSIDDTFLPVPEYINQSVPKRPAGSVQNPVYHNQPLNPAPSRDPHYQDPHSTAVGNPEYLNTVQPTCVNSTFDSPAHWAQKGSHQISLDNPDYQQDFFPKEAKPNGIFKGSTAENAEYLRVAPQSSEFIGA
Sequence of EGFR L858R/T790M double mutant type (P00533 25-1210 T790M/L858R): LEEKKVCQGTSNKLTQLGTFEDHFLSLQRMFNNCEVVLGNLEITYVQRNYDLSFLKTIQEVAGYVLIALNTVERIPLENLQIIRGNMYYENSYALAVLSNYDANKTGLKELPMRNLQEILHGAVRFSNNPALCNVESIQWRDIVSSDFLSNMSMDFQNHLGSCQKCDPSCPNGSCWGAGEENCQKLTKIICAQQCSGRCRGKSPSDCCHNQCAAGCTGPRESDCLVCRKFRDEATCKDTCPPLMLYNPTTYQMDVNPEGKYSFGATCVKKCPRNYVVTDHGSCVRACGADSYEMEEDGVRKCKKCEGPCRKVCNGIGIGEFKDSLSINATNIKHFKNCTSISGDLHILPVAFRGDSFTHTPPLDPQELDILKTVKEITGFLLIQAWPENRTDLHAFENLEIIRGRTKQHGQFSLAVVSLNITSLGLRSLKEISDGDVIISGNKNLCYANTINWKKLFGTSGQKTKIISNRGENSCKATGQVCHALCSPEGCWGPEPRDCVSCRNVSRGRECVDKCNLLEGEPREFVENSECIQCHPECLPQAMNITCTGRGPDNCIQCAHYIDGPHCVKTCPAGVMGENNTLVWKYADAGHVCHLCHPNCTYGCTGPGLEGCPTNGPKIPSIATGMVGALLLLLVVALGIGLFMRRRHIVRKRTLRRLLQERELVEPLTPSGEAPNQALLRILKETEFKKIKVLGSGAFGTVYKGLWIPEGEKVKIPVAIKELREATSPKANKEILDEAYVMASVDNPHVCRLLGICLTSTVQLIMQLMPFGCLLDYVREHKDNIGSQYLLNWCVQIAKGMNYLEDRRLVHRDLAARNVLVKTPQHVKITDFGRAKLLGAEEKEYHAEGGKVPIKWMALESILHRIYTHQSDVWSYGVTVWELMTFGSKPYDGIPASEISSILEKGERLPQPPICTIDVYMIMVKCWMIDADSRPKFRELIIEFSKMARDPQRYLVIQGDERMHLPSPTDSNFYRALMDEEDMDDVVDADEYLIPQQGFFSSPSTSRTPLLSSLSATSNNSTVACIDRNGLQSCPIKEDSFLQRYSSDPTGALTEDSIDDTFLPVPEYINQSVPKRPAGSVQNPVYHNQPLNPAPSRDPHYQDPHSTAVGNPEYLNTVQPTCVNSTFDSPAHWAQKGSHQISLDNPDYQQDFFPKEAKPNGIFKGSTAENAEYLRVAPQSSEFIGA

| SMILES | IC50 [1] | IC50 [2] | IC50 [3] | IC50 [4, 17] | IC50 ([5]; 72 hours) | IC50 ([6]; 72 hours) | IC50 ([7]; 72 hours) | IC50 ([8]; 72 hours) | IC50 ([9]; 72 hours) | IC50 [10] | IC50 ([11]; 72 hours) | IC50 ([12]; 72 hours) | IC50 ([13]; 72 hours) | IC50 ([14]; 72 hours) | The kinase activity inhibitory rate (%) by the tested compounds at 10 μM MET [15] | The kinase activity inhibitory rate (%) by the tested compounds at 10 μM c-KIT [16] | also measured |
| --- | --- | --- | --- | --- | --- | --- | --- | --- | --- | --- | --- | --- | --- | --- | --- | --- | --- |
| CN1CCN(c2ccc(Nc3ncc4nc(Nc5ccccc5)n(C)c4n3)cc2)CC1 [Compounds 8-24] | 0.522 µM | 0.003 µM | 0.012 µM | > 10000 nM | 2410 nM | 9650 nM | > 10000 nM | > 10000 nM | 1380 nM | 8080 nM | 9650 nM | 288 nM | 1420 nM | 2400 nM | 0% | 48% | – |
| COc1cccc(Nc2nc3cnc(Nc4ccc(N5CCN(C)CC5)cc4)nc3n2C(C)C)c1 [Compounds 8-17] | 0.004 µM | 0.001 µM | 0.004 µM | > 10000 nM | 635 nM | 783 nM | > 1000 nM | > 10000 nM | 813 nM | 664 nM | 8460 nM | 684 nM | 3 nM | 190 nM | 52% | 89% | – |
| CC(C)n1c(Nc2ccc(C(=O)Nc3cccc(F)c3)cc2)nc2cnc(Nc3ccc(N4CCN(C)CC4)cc3)nc21 [Compounds 8-22] | 0.087 µM | 0.01 µM | 0.117 µM | > 10000 nM | 1720 nM | 1720 nM | 1920 nM | > 10000 nM | 1830 nM | 511 nM | 5520 nM | 283 nM | 921 nM | 1300 nM | 69% | 10% | – |
| CC(C)n1c(Nc2ccc(F)c(Cl)c2)nc2cnc(Nc3ccc(C(=O)NN4CCN(C)CC4)cc3)nc21 [Compound 8-2] | < 0.001 µM | 0.001 µM | 0.002 µM | > 10000 nM | 1860 nM | 6130 nM | 5570 nM | > 10000 nM | 7810 nM | > 1000 nM | 9290 nM | 1770 nM | 3730 nM | 1590 nM | 100% | 90% | – |
| CC(C)n1c(Nc2ccc(F)c(Cl)c2)nc2cnc(Nc3ccc(N4CCN(C)CC4)cc3)nc21 [Compounds 8-13] | 0.009 µM | 0.003 µM | 0.004 µM | 5960 nM | 202 nM | 2100 nM | 3680 nM | > 10000 nM | 2540 nM | > 1000 nM | 1290 nM | 512 nM | 86 nM | 838 nM | 100% | 87% | – |
| CC(C)n1c(Nc2ccc(Br)cc2)nc2cnc(Nc3ccc(N4CCN(C)CC4)cc3)nc21 [Compounds 8-15] | 0.015 µM | 0.001 µM | 0.003 µM | 7790 nM | 1920 nM | 2300 nM | 2990 nM | > 10000 nM | 2200 nM | 710 nM | 9400 nM | 197 nM | 303 nM | 775 nM | 45% | 94% | – |
| C#Cc1cccc(Nc2nc3cnc(Nc4ccc(N5CCN(C)CC5)cc4)nc3n2C(C)C)c1 [Compounds 8-12] | 0.003 µM | 0.003 µM | 0.004 µM | 6610 nM | 2140 nM | 3220 nM | 1290 nM | > 10000 nM | 4010 nM | > 1000 nM | 2570 nM | 1710 nM | 221 nM | 3090 nM | 93% | 82% | – |
| CC(C)n1c(Nc2ccccc2)nc2cnc(Nc3ccc(C(=O)NC4CCN(C)CC4)cc3)nc21 [Compounds 8-9] | 0.006 µM | 0.0004 µM | < 0.001 µM | > 10000 nM | 1030 nM | 1320 nM | 524 nM | > 10000 nM | 518 nM | 764 nM | 1530 nM | 235 nM | 143 nM | 586 nM | 67% | 96% | – |
| CC(C)n1c(Nc2cccnc2)nc2cnc(Nc3ccc(N4CCN(C)CC4)cc3)nc21 [Compounds 8-29] | 0.064 µM | 0.004 µM | 0.031 µM | > 10000 nM | 2260 nM | 8120 nM | 5800 nM | > 10000 nM | 2480 nM | 8170 nM | 9020 nM | 4 nM | 240 nM | 1880 nM | 50% | 36% | – |
| CC(C)n1c(Nc2cccc(C(F)(F)F)c2)nc2cnc(Nc3ccc(N4CCN(C)CC4)cc3)nc21 [Compounds 8-16] | 0.012 µM | 0.001 µM | 0.003 µM | 10400 nM | 1370 nM | 1960 nM | 864 nM | 6480 nM | 766 nM | > 1000 nM | 5880 nM | 4800 nM | 2520 nM | 3100 nM | 93% | 62% | – |
| CC(C)n1c(Nc2ccc(NC(=O)Nc3ccc(F)c(Cl)c3)cc2)nc2cnc(Nc3ccc(N4CCN(C)CC4)cc3)nc21 [Compounds 8-21] | 0.005 µM | 0.005 µM | 0.011 µM | 8930 nM | 1590 nM | 890 nM | 2220 nM | > 10000 nM | 772 nM | 1330 nM | 5720 nM | 279 nM | 1340 nM | 725 nM | 99% | 101% | – |
| COc1cc(C(=O)NN2CCN(C)CC2)ccc1Nc1ncc2nc(Nc3ccccc3)n(C(C)C)c2n1 [Compound 8-7, 3-methoxy-4-(9-isopropyl-8-phenylamino-9H-purin-2-ylamino)-N-(4-methylpiperazin-1-yl)benzamide] | – | – | – | – | – | – | – | – | – | – | – | – | – | – | – | – | IC50 ([4]; Homo sapiens, HepG2, 72 hours): > 10000 nM; IC50 ([5]; Homo sapiens, BT-474, 72 hours): 5820 nM; IC50 ([6]; Homo sapiens, MDA-MB-468, 72 hours): > 10000 nM; IC50 ([7]; Homo sapiens, SW-620, 72 hours): > 10000 nM; IC50 ([8]; Homo sapiens, SW480, 72 hours): > 10000 nM; IC50 ([9]; Homo sapiens, HCT-116, 72 hours): > 10000 nM; IC50 ([10]; Homo sapiens): 3760 nM; IC50 ([11]; Homo sapiens, A-431, 72 hours): > 10000 nM; IC50 ([12]; Homo sapiens, MV4-11, 72 hours): > 10000 nM; IC50 ([13]; Homo sapiens, K562, 72 hours): > 10000 nM; IC50 ([14]; Homo sapiens, A-375, 72 hours): 1310 nM; inhibition at 10 µM ([15]; read-out: The kinase activity inhibitory rate (%) by the tested compounds at 10 μM MET): 0%; inhibition at 10 µM ([16]; read-out: The kinase activity inhibitory rate (%) by the tested compounds at 10 μM c-KIT): 8% |
